Data taken from article PMC9532399, “The lysosomal transporter TAPL has a dual role as peptide translocator and phosphatidylserine floppase” (Nature Communications, 2022).
Numbering of substitutions follows the chain as printed. Residues, ends and D or L forms follow the SMILES beside them. *: point of attachment. X1 = CC[N+]1=C(C=CC=CC=C2N(CCCCCC(=O)NCCN3C(=O)CC(*)C3=O)c3ccc(S(=O)(=O)[O-])cc3C2(C)C)C(C)(C)c2cc(S(=O)(=O)O)ccc21

Columns and labels:
[1] = Aggregation in ATPase reaction buffer; format: physicochemical; conditions: addition to the ATPase reaction buffer, data not shown
Description: The ATPase activities of proteins obtained after various purification procedures were determined by NADH-coupled spectrophotometric assays. 10 μg of DM-purified or nanodisc-reconstituted protein was added to 140 μL of reaction buffer containing 50 mM HEPES–KOH pH 8.0, 60 μg/mL pyruvate kinase (Roche), 16 μg/mL lactate dehydrogenase (Roche), 10 mM phosphoenolpyruvate (Roche), 0.3 mM NADH, 3 mM ATP, 10 mM MgCl2, and 0.17% (w/v) DM in the presence or absence of 250 μM peptide. For proteins reconstituted into nanodiscs, DM was not added to the reaction buffer. For lipid-stimulated ATPase assays, the thin film of lipids was hydrated in 100 μL of buffer containing 50 mM HEPES–KOH pH 8.0 and 10 mM MgCl2 to yield a 10 mM solution. After sonication of the lipid solution for 10 min to decrease its turbidity, the reaction was initiated by adding varying concentrations of lipids to the mixture. ATP hydrolysis activity was monitored at 37 °C for 3 min by measuring the rate of decline of NADH absorbance at 340 nm. To inhibit ATP hydrolysis, the reaction mixture was incubated with 3 mM AMP-PNP or 8 mM NaF/2 mM BeSO4 for 5 min at RT. The kinetic parameters of ATP hydrolysis were calculated by fitting the initial rates of ATP hydrolysis to the Michaelis–Menten equation using PRISM 4.0 (GraphPad software).

[2] = target: T1, mouse TAPL ΔTMD0 (Mus musculus, UniProt Q9JJ59); experiment: NADH-coupled ATPase assay, nanodisc-reconstituted ΔTMD0; format: biochemical; conditions: POPE nanodiscs, data not shown
T1 construct: thrombin cleavage site (C); eGFP (C); 10XHis (C); made in house; host or cells: Trichoplusia ni High Five (Hi5) insect cells, baculovirus (pVL1393)
T1 sequence (Q9JJ59 143-762): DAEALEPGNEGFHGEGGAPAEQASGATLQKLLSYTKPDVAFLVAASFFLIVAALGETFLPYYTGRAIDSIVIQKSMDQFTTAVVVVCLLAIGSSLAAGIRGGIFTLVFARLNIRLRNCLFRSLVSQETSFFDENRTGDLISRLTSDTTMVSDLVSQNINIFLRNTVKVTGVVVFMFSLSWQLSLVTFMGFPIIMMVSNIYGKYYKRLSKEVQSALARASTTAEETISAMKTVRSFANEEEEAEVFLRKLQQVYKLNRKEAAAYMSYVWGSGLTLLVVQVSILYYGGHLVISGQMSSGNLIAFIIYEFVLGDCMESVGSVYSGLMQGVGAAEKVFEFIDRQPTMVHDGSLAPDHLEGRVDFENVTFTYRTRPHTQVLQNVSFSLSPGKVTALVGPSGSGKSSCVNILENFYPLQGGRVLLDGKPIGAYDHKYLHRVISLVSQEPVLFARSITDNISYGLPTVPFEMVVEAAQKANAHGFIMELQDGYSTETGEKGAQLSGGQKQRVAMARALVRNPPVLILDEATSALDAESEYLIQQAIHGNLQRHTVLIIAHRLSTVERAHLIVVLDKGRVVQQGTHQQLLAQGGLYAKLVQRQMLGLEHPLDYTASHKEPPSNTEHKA
Description: […] Each lipid was dissolved in 0.17% (w/v) DM and 0.017% (w/v) CHS and mixed with MSP1 and DM/CHS-purified ΔTMD0 at a molar ratio of 150:4:1. After incubation on ice for 10 min, the mixture was treated with 60 mg of Bio-beads (Bio-Rad) at 4 °C for 4 h to remove detergent. The supernatant was additionally incubated overnight with 120 mg of fresh Bio-Beads at 4 °C. The final supernatant was injected onto a Superdex 200 Increase 10/300 GL column equilibrated with a buffer of 20 mM HEPES–NaOH pH 7.5 and 200 mM NaCl. The elution fractions containing protein-loaded nanodiscs were pooled and used for cryo-EM and functional analyses.
The ATPase activities of proteins obtained after various purification procedures were determined by NADH-coupled spectrophotometric assays. 10 μg of DM-purified or nanodisc-reconstituted protein was added to 140 μL of reaction buffer containing 50 mM HEPES–KOH pH 8.0, 60 μg/mL pyruvate kinase (Roche), 16 μg/mL lactate dehydrogenase (Roche), 10 mM phosphoenolpyruvate (Roche), 0.3 mM NADH, 3 mM ATP, 10 mM MgCl2, and 0.17% (w/v) DM in the presence or absence of 250 μM peptide. […] ATP hydrolysis activity was monitored at 37 °C for 3 min by measuring the rate of decline of NADH absorbance at 340 nm. […] The kinetic parameters of ATP hydrolysis were calculated by fitting the initial rates of ATP hydrolysis to the Michaelis–Menten equation using PRISM 4.0 (GraphPad software).

[3] = target: T2, TAPL Y405A mutant (Mus musculus, UniProt Q9JJ59, Y405A); experiment: Microscale thermophoresis, DM-purified Y405A; format: binding; conditions: Y405A vs wild-type
T2 construct: thrombin cleavage site (C); eGFP (C); 10XHis (C); made in house; host or cells: Trichoplusia ni High Five (Hi5) insect cells, baculovirus (pVL1393)
T2 sequence (Q9JJ59 143-762 Y405A): T1 sequence (Q9JJ59 143-762) with Y263A
Description: Binding of 9-mer peptide (RRYQNSTC^Cy-5L) to DM-purified ΔTMD0 was monitored by microscale thermophoresis as described previously. Briefly, 9-mer peptide was incubated with a 10x molar excess of Cy5 dye (Thermo Fisher Scientific) in 50 mM HEPES–NaOH pH 7.5 at RT for 2 h. The labeled peptide was purified from the excess dye with a desalting column. Cy5-labeled peptide (0.2 μM) was added to serial 2-fold dilutions of protein. The mixtures were incubated for 10 min at RT and loaded onto Monolith NT.115 standard-treated capillaries (NanoTemper Technologies). Thermophoretic movements were induced by infrared laser activation. Subsequent fluorescence changes were monitored with a Monolith NT.115 pico device and plotted against protein concentration. The results were analyzed with MO.Affinity Analysis software.

[4] = design: method as in PMID 11867457; conditions: cited from earlier work

In the case of `CCCCCCCC/C=C\CCCCCCCC(=O)O[C@H](COC(=O)CCCCCCCCCCCCCCC)COP(=O)(O)OCCN` [POPE, 1-palmitoyl-2-oleoyl-sn-glycero-3-phosphoethanolamine], the “aggregation” value [1] is reported as “caused nonspecific aggregation” and the “ΔTMD0 ATPase activity in nanodiscs” value [2] is reported as “no ΔTMD0 activity was detected”.

With `CC[N+]1=C(C=CC=CC=C2N(CCCCCC(=O)NCCN3C(=O)CC(SC[C@H](NC(=O)[C@@H](NC(=O)[C@H](CO)NC(=O)[C@H](CC(N)=O)NC(=O)[C@H](CCC(N)=O)NC(=O)[C@H](Cc4ccc(O)cc4)NC(=O)[C@H](CCCNC(=N)N)NC(=O)[C@@H](N)CCCNC(=N)N)[C@@H](C)O)C(=O)N[C@@H](CC(C)C)C(=O)O)C3=O)c3ccc(S(=O)(=O)[O-])cc3C2(C)C)C(C)(C)c2cc(S(=O)(=O)O)ccc21` (stereo partly drawn) [RRYQNSTC^Cy-5L] (H-RRYQNSTC(X1)L-OH; N-terminus and C-terminus assumed) the “decrease in peptide affinity” value [3] was 73 fold.

For `CC(C)CCC[C@@H](C)[C@H]1CC[C@H]2[C@@H]3CC=C4C[C@@H](O)CC[C@]4(C)[C@H]3CC[C@]12C` [cholesterol], the “time of spontaneous movement across the liposome bilayer” value [4] is listed as < 1 min.
